Where a name gives a salt, the structure may show the parent alone. Read-outs that look alike come from different tables or passages of the source. Blank lines part the entries; values can stand above or below the compound they belong to.
Key:
Type in all cases: biochemical
Nterm-phos [1] = molecular target: T1, Nterm-phos (Homo sapiens, UniProt P34913); experiment: Specific activity of Nterm-phos for lipid-phosphates (phosphoric acid formed); conditions: substrate hydrolysis, 30° C., average ± SD of three experiments
T1 construct: use of a truncated enzyme from crude extract versus purified full-length human sEH; made in house; host or cells: baculovirus expression system (insect cells)
T1 sequence (P34913 1-555): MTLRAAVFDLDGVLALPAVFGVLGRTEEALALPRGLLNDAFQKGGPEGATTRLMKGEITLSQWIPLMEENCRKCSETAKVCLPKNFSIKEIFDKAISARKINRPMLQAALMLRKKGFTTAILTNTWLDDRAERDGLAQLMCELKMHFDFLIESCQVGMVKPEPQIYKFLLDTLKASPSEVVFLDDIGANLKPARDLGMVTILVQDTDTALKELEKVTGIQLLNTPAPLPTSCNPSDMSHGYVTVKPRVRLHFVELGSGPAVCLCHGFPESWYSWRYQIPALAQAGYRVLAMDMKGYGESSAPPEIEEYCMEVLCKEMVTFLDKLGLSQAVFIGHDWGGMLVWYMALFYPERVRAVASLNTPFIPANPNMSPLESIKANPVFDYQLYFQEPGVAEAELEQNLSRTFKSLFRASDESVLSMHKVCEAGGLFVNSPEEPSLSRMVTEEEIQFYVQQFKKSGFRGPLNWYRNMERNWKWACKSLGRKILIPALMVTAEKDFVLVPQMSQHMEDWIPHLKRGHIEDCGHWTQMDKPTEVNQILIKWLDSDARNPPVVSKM
Experimental: Nterm-Phos activity was measured in Bis-Tris HCl buffer (25 mM PH 7.0) containing 0.1 mg/mL of Fraction V BSA and 1 mM of MgCl2 (buffer A) at 30° C. […] APHP activity was measured as described using 7 as substrate (Newman et al., Proc. Natl. Acad. Sci. USA. 100, 1558-1563 (2003)). Compounds 34-37 were incubated separately with the enzyme for a given time, and then the reaction was stopped by the addition of 100 μL of methanol. The reaction products for compounds 34-37 were extracted with 500 μL of ethyl acetate. The quantification of the alcohol products was performed by LC/MS analysis of 2 μL of the organic phase. The Cterm-EH activity was measured as described previously in buffer A, using either racemic 4-nitrophenyl-trans-2,3-epoxy-3-phenylpropyl carbonate (Dietze et al., Anal. Biochem. 216, 176-187 (1994)) or racemic [^3H]-trans-1,3-diphenylpropene oxide as substrate (Borhan et al., Anal. Biochem. 231, 188-200 (1995)). This latter substrate was also used to measure the activity of the cress sEH and the truncated human sEH.

Human Cterm-EH = molecular target: T2, Human Cterm-EH (Homo sapiens, UniProt P34913); experiment: Inhibition of Cterm-EH activity by lipid-phosphates, fluorescent assay
T2 construct: use of a truncated enzyme from crude extract versus purified full-length human sEH; made in house; host or cells: baculovirus expression system (insect cells)
T2 sequence (P34913 1-555): T1 sequence (P34913 1-555)

[2] = molecular target: T3, Human sEH Cterm-EH activity (Homo sapiens, UniProt P34913); experiment: Cterm-EH inhibition IC50 with 4-nitrophenyl-trans-2,3-epoxy-3-phenylpropyl carbonate
T3 construct: use of a truncated enzyme from crude extract versus purified full-length human sEH; made in house; host or cells: baculovirus expression system (insect cells)
T3 sequence (P34913 1-555): T1 sequence (P34913 1-555)

Nterm-phos [3] = molecular target: T1, Nterm-phos; experiment: Kinetic parameters of Nterm-phos for poly-isoprenyl phosphates (LC/MS of alcohol products)
Experimental: Nterm-Phos activity was measured in Bis-Tris HCl buffer (25 mM PH 7.0) containing 0.1 mg/mL of Fraction V BSA and 1 mM of MgCl2 (buffer A) at 30° C. […] APHP activity was measured as described using 7 as substrate (Newman et al., Proc. Natl. Acad. Sci. […] The quantification of the alcohol products was performed by LC/MS analysis of 2 μL of the organic phase. […] This latter substrate was also used to measure the activity of the cress sEH and the truncated human sEH. […] The Shimadzu […] HPLC system (Shimadzu Scientific Instruments, Columbia, Md.) was set at a flow rate of 0.2 mL/min, and a 2.1×30 mm XTerraTM MS C18 3.5 μm column (Waters, Milford, Mass.) held at 20° C. The samples were kept at 10° C. in the auto-sampler. […] A solvent system consisting of water with 0.1% formic acid (solvent A) and acetonitrile with 0.1% formic acid (solvent B) was used and set at a flow rate of 0.25 mL/min. […] Pyrophosphate was analyzed by direct injection of 5 μL sample into the mass spectrometer at 0.05 mL/min flow rate of 50% A and 50% B. Analytes were detected by electrospray ionization-tandem quadrupole mass spectrometry in multiple reaction monitoring mode (MRM) using a Quattro Premier tandem quadrupole mass spectrometer (Micromass, Manchester, UK). Nitrogen gas flow rates were fixed with a cone gas flow of 25 L/h and a desolvation gas flow of 700 L/h. Electrospray ionization of geraniol, farnesol and geranylgeraniol was performed in positive mode with a capillary voltage fixed at 3.20 kV and a cone voltage fixed at 25 V using a source temperature of 125° C. and a desolvation temperature of 350° C. Capillary voltage and cone voltage were optimized in an infusion experiment. […] However, intense [M+H-18]^+ ions were produced in the source due to water loss. Therefore, these ions were selected as precursor ions to set MRM acquisition mode. Monitored transitions were 137>95 m/z for geraniol, 205>121 m/z for farnesol, and 273>149 m/z for geranylgeraniol at collision voltage of 15 V for all analytes. Argon was used as collision gas (2.2×10^-3 Torr). […] Chromatogram integration and analyte quantification was performed with QuantLynx module of the MassLynx 4.0 software (Micromass, Manchester, UK).

[4] = substrate 50 μM, 5 min preincubation, 30° C., read-out: IC50

SMILES: CCCCCCCC/C=C\CCCCCCCC(=O)OCC(COP(=O)(O)O)OC(=O)CCCCCCC/C=C\CCCCCCCC (stereo not drawn) [1,2-Dioleoyl-glycerol-3-phosphate (DOGP), 1,2-Dioleoyl-glycerol-3-phosphate]
Spec. Act. (Nterm-phos [1]): <0.3 nmol/min/mg

SMILES: CCCCCCCCCCCCCCCCC(C(=O)O)S(=O)(=O)O (stereo not drawn) [Compound 10, α-Sulfostearic acid]
IC50 [2, 4]: > 100 µM

SMILES: CCCCCCCCCCCCS(=O)(=O)O [Compound 12, Sodium dodecyl-sulfonate]
IC50 [2, 4]: > 100 µM

SMILES: O=[N+]([O-])c1ccc(OS(=O)(=O)O)cc1 [Compound 13, 4-Nitrophenyl sulfate]
IC50 [2, 4]: > 100 µM

SMILES: C[C@H](CCC(=O)NCCS(=O)(=O)O)[C@H]1CC[C@H]2[C@@H]3CC[C@@H]4C[C@H](OS(=O)(=O)O)CC[C@]4(C)[C@H]3CC[C@]12C [Compound 14, Taurolithocholic acid 3-sulfate]
IC50 ([2]; read-out: IC50): 90 ± 5 µM

SMILES: C[C@H](CCC(=O)NCCS(=O)(=O)O)[C@H]1CC[C@H]2[C@@H]3[C@H](O)C[C@@H]4C[C@H](O)CC[C@]4(C)[C@H]3C[C@H](O)[C@]12C [Compound 15, Taurocholic acid]
IC50 [2]: > 100 µM

SMILES: C[C@]12CC[C@@H]3c4ccc(OS(=O)(=O)O)cc4CC[C@H]3[C@@H]1CCC2=O [Compound 16, Estrone-3-sulfate]
IC50 [2, 4]: > 100 µM

SMILES: CCOP(=O)(OCC)C(=O)c1ccccc1 [Compound 22, Diethyl-benzoylphosphonate]
IC50 [2]: > 100 µM

SMILES: CCOP(=O)(C/C=C/c1ccccc1)OCC [Compound 24, Diethyl trans-cinnamyl-phosphonate]
IC50 [2]: > 100 µM

SMILES: CCOP(=O)(Cc1ccc(C)cc1)OCC [Compound 25, Diethyl 4-methylbenzyl-phosphonate]
IC50 [2]: > 100 µM

SMILES: CCCCCC(=O)CP(=O)(OC)OC [Compound 29, Dimethyl (2-oxoheptyl)-phosphonate]
IC50 [2]: > 100 µM

SMILES: CCOP(=O)(OCC)C(O)C(F)(F)F (stereo not drawn) [Compound 30, Diethyl (2,2,2-trifluoro-1-hydroxyethyl)-phosphonate]
IC50 [2]: > 100 µM

SMILES: CCOP(=O)(CSCC)OCC [Compound 31, Diethyl (ethyltiomethyl)phosphonate]
IC50 [2]: > 100 µM

SMILES: CC(C)=CCC/C(C)=C/COP(=O)(O)OP(=O)(O)O [Compound 34, Geranyl-pyrophosphate]
Km (Nterm-phos [3]; linear curve, above the highest concentration tested): > 5 µM

SMILES: CC(C)=CCC/C(C)=C/CC/C(C)=C/COP(=O)(O)OP(=O)(O)O [Compound 35, Farnesyl-pyrophosphate]
Spec. Act. (Nterm-phos [1]): 32 ± 7 nmol/min/mg
Inhibition (%) (Human Cterm-EH; [LP] 10 μM): 60%
Hill coefficient (Nterm-phos [3]; compound as substrate): 1.0 ± 0.1
Km (Nterm-phos [3]; compound as substrate): 10.1 ± 1.1 µM
VM (Nterm-phos [3]; compound as substrate): 12.5 ± 1.0 nmol/min/mg

The remaining lines, values ahead:

Spec. Act. (Nterm-phos [1]): 30 ± 15 nmol/min/mg
Inhibition (%) (Human Cterm-EH; [LP] 14 μM): 86%
SMILES: CC(C)=CCC/C(C)=C/CC/C(C)=C/C1C(COP(=O)(O)OP(=O)(O)O)C1(C)CC/C=C(\C)CCC=C(C)C (stereo in doubt) [Pre-squalene diphosphate (PSDP), Pre-squalene diphosphate]

Spec. Act. (Nterm-phos [1]): 54 ± 22 nmol/min/mg
Inhibition (%) (Human Cterm-EH; [LP] 14 μM): 30%
SMILES: CC(C)=CCC/C(C)=C/CC/C(C)=C/C1C(COP(=O)(O)O)C1(C)CC/C=C(\C)CCC=C(C)C (stereo in doubt) [Pre-squalene monophosphate (PSMP), Pre-squalene monophosphate]

IC50 [2, 4]: > 100 µM
SMILES: O=C[C@H](O)[C@@H](O)[C@@H](O)[C@H](O)COS(=O)(=O)O [Compound 17, D-Galactose-6-sulfate]

IC50 [2, 4]: > 100 µM
SMILES: O=C1O[C@H]([C@@H](O)CO)C(O)=C1OS(=O)(=O)O [Compound 18, L-Ascorbic acid 2-sulfate dipotassium salt]

IC50 [2, 4]: > 100 µM
SMILES: CC(=O)N[C@H]1C(O)O[C@H](CO)[C@H](OS(=O)(=O)O)[C@@H]1O (stereo partly drawn) [Compound 19, N-Acetyl-D-galactosamine 4-sulfate]

IC50 [2, 4]: > 100 µM
SMILES: CC(C)OP(=O)(CP(=O)(OC(C)C)OC(C)C)OC(C)C [Compound 20, Tetra-isopropyl-methylene diphosphonate]

IC50 [2, 4]: 92 ± 3 µM
SMILES: CCCCCCCCOP(=O)(OCCCCCCCC)c1ccccc1 [Compound 27, Dioctyl-phenyl-phosphonate]

IC50 [2, 4]: > 100 µM
SMILES: O=P(O)(OCc1ccccc1)OCc1ccccc1 [Compound 28, Di-benzyl-phosphate]

IC50 [2, 4]: > 100 µM
SMILES: CCCCCCCCCCCCP(=O)(O)O [Compound 33, Dodecyl phosphonic acid]

Inhibition (%) (Human Cterm-EH; [LP] 10 μM): 45%
Hill coefficient (Nterm-phos [3]; compound as substrate): 1.0 ± 0.2
Km (Nterm-phos [3]; compound as substrate): 3.4 ± 1.6 µM
VM (Nterm-phos [3]; compound as substrate): 4.7 ± 1.1 nmol/min/mg
SMILES: CC(C)=CCC/C(C)=C/CC/C(C)=C/CC/C(C)=C/COP(=O)(O)OP(=O)(O)O [Compound 36, Geranylgeranyl-pyrophosphate]

hydrolyzed faster than the corresponding pyrophosphate derivative (Nterm-phos [3]): approximately 50 fold
Hill coefficient (Nterm-phos [3]; compound as substrate): 1.0 ± 0.1
Km (Nterm-phos [3]; compound as substrate): 5.7 ± 0.4 µM
VM (Nterm-phos [3]; compound as substrate): 303 ± 19 nmol/min/mg
SMILES: CC(C)=CCC/C(C)=C\CC/C(C)=C\COP(=O)(O)O [Compound 37, Farnesyl monophosphate]

Spec. Act. (Nterm-phos [1]): <0.3 nmol/min/mg
Inhibition (%) (Human Cterm-EH; [LP] 50 μM): 31%
SMILES: CCCCCCCCCCCCCC=CC(O)C(COP(=O)(O)O)NC(=O)CCCCCCC (stereo not drawn) [N-Octyl-ceramide-1-phosphate (OCP), N-Octyl-ceramide-1-phosphate]

Spec. Act. (Nterm-phos [1]): 1.1 ± 0.1 nmol/min/mg
inhibition at 40 µM (Human Cterm-EH; [LP] 40 μM): 2%
SMILES: CCCCCCCCCCCCC/C=C/[C@@H](O)[C@@H](N)COP(=O)(O)O [Sphingosine-1-phosphate (S1P), Sphingosine-1-phosphate]

— patent publication US20090215894A1, “INHIBITION OF PHOSPHATASE ACTIVITY OF SOLUBLE EPOXIDE HYDROLASE AMINO TERMINUS AND USES THEREOF” (REGENTS OF THE UNIVERSITY OF CALIFORNIA, priority 2005, published 2009)
